# Source: patent US12486294B2, “Radioisotope labeled compound for imaging or treatment of prostate cancer” (SEOUL NATIONAL UNIVERSITY R&DB FOUNDATION, priority 2019, dated 2025)
# Tests used:
# [1] = system: PSMA-expressing 22Rv1 tumor; assay: SPECT imaging in 22Rv1 cell-transplanted mice; format: in vivo, BALB/c nude mouse; conditions: for tumor intake in SPECT image: intravenous injection
# Procedure: Specifically, 0.1 mL of RPMI1640 culture medium containing 5×10^6 22 Rv1 cells was subcutaneously injected into the right back of a 4-week-old male BALE/c nude mouse. After 2 to 3 weeks, the present inventors confirmed that the tumor tissue had reached an appropriate size and used it in the experiment. For animal injection, [^99mTc]Tc-15 and [^99mTc]Tc-16 were each diluted in saline for injection to a concentration of 10.2 MBq/100 μL. […]
# [2] = Stability test in human serum; format: in vitro ADME; conditions: 36.5° C., after 2 hours
# Procedure: The stability test in human serum is to test the stability when it comes into contact with human serum after administration to the human body, and the stability in the body is partly tested in vitro.
# (§1) In order to examine the stability of [^99mTc]Tc-15 according to the present invention in human serum, 3.7 MBq of [^99mTc]Tc-15 (100 μL) prepared in Example 3 was added to 1 mL of human serum, mixed well, and then cultured at 36.5° C. with stirring. After 2 hours, the reaction mixture was analyzed by ITLC.
# as §1, with “of [^99mTc]Tc-16” for “of [^99mTc]Tc-15”, “Example 4” for “Example 3”
# PSMA = PSMA (Homo sapiens, UniProt Q04609); conditions: 22Rv1 cells, 1 hour at 37° C., non-specific binding with 250 μM PMPA, nonlinear regression
# Procedure: The PSMA-positive prostate cancer cell line 22Rv1 was placed in a 24-well plate at the density of 1×10^5 cells/well, followed by culture in a 37° C., 5% CO2 incubator for 24 hours. […] 0.5 mL of the diluted solution was taken and put into cultured cells and incubated in a 37° C., 5% CO2 incubator for 1 hour. After removing the culture medium, the cells were washed twice with fresh culture medium, 1 mL of 0.5% sodium dodecyl sulfate (SDS) dissolved in phosphate buffered saline was added thereto, gently shaken to dissolve, and then transferred to a 5 mL disposable plastic test tube. The radioactivity of the tube was measured using a gamma counter. […] Specific binding was obtained by subtracting non-specific binding from total binding, and a saturation curve was drawn. […] From these saturation curves, the dissociation constant, Kd, was calculated by nonlinear regression using GraphPad Prism 7 program.
# [3] = system: PSMA-targeted 22Rv1 tumor; assay: In vivo distribution test in cancer transplantation animals; set-up: species or system BALB/c male nude mice
# Procedure: Specifically, 0.1 mL of RPMI1640 culture medium containing 5×10^6 22 Rv1 cells was subcutaneously injected into the left flank of a 4-week-old male BALB/c nude mouse. After 2 to 3 weeks, the present inventors confirmed that the tumor tissue had reached an appropriate size and used it in the experiment. For animal injection, [^99mTc]Tc-15 prepared in Example 3 and [^99mTc]Tc-16 prepared in Example 4 were each diluted in saline for injection to a concentration of 0.74 MBq/100 μL. Each of these was injected into the tail vein of the mice transplanted with cancer cells, and after 1 hour and 4 hours, cancer, blood, muscle, heart. Lung, liver, spleen, stomach, small intestine, kidney, bone, and the like were collected and their weight and radioactivity were measured.
# [4] = 1 h Blockade, co-injection of 2-PMPA (100 μg)
# [5] = 4 h Blockade, co-injection of 2-PMPA (100 μg)
# PSMA, sequence (Q04609 whole entry): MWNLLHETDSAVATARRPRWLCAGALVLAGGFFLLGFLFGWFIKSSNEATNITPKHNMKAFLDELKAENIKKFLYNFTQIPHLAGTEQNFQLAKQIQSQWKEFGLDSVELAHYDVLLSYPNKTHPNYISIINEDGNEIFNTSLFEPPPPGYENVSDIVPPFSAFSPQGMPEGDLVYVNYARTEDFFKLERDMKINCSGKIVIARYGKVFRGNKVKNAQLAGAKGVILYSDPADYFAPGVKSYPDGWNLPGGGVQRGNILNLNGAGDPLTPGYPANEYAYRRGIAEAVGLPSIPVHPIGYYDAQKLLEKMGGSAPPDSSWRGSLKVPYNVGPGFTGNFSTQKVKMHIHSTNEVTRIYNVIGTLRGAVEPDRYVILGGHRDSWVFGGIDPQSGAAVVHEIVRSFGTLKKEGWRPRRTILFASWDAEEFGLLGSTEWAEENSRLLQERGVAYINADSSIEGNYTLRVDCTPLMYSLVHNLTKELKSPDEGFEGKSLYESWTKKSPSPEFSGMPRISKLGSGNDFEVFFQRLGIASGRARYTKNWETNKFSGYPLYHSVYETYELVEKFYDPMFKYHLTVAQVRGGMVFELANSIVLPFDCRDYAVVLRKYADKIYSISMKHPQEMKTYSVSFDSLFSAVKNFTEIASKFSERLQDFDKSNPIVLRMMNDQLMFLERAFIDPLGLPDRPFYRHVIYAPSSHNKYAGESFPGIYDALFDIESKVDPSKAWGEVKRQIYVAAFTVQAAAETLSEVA
structure (smiles),measurement,setting,value
[99Tc+].[C-]#[N+]CCC(=O)NCCCCCC(=O)NC(Cc1ccccc1)C(=O)N[C@H](Cc1ccccc1)C(=O)NCCCCCC(=O)NCCCCC(NC(=O)N[C@@H](CCC(=O)O)C(=O)O)C(=O)O.[C-]#[N+]CCC(=O)NCCCCCC(=O)NC(Cc1ccccc1)C(=O)N[C@H](Cc1ccccc1)C(=O)NCCCCCC(=O)NCCCCC(NC(=O)N[C@@H](CCC(=O)O)C(=O)O)C(=O)O.[C-]#[N+]CCC(=O)NCCCCCC(=O)NC(Cc1ccccc1)C(=O)N[C@H](Cc1ccccc1)C(=O)NCCCCCC(=O)NCCCCC(NC(=O)N[C@@H](CCC(=O)O)C(=O)O)C(=O)O.[C-]#[O+].[C-]#[O+].[C-]#[O+] (stereo partly shown) [[^99mTc]Tc-16],tumor intake in SPECT image with PSMA blocked,[1]; MIP-1072 injected to selectively block PSMA,tumor intake was not observed
same,tumor intake in SPECT image,[1]; 1 hour after the injection,the increase in radioactivity was evident
same,tumor intake in SPECT image,[1]; 4 hours after the injection,the intake was more distinct
same,distribution observed in SPECT image,"[1]; tail vein injection, 1 hour and 3 hours",not only excreted by the kidney but also ingested into the prostate cancer tissue
same,"intake in prostate cancer in SPECT image, compared between the two labeled compounds","[1]; tail vein injection, FIGS. 4A and 5A",higher intake in prostate cancer
same,stability in human serum (ITLC),[2],most of them were present as [^99mTc]Tc-16 and hardly separated as ^99mTc
same,Kd,PSMA,0.2 nM
same,"In vivo distribution, Blood",[3]; 1 h,0.42 % ID/g
same,"In vivo distribution, Bone",[3]; 1 h,0.63 % ID/g
same,"In vivo distribution, Heart",[3]; 1 h,0.36 % ID/g
same,"In vivo distribution, Intestine",[3]; 1 h,0.47 % ID/g
same,"In vivo distribution, Kidney",[3]; 1 h,24.66 % ID/g
same,"In vivo distribution, Liver",[3]; 1 h,1.17 % ID/g
same,"In vivo distribution, Lung",[3]; 1 h,0.52 % ID/g
same,"In vivo distribution, Muscle",[3]; 1 h,0.13 % ID/g
same,"In vivo distribution, Spleen",[3]; 1 h,3.40 % ID/g
same,"In vivo distribution, Stomach",[3]; 1 h,0.85 % ID/g
same,"In vivo distribution, Tail",[3]; 1 h,0.49 % ID/g
same,"In vivo distribution, Tumor",[3]; 1 h,1.87 % ID/g
same,Tumor/blood,[3]; 1 h,4.43
same,Tumor/kidney,[3]; 1 h,0.08
same,Tumor/liver,[3]; 1 h,1.60
same,Tumor/muscle,[3]; 1 h,14.05
same,"In vivo distribution, Blood",[3]; [4],0.75 % ID/g
same,"In vivo distribution, Bone",[3]; [4],1.16 % ID/g
same,"In vivo distribution, Heart",[3]; [4],0.48 % ID/g
same,"In vivo distribution, Intestine",[3]; [4],0.85 % ID/g
same,"In vivo distribution, Kidney",[3]; [4],5.66 % ID/g
same,"In vivo distribution, Liver",[3]; [4],1.95 % ID/g
same,"In vivo distribution, Lung",[3]; [4],1.63 % ID/g
same,"In vivo distribution, Muscle",[3]; [4],0.22 % ID/g
same,"In vivo distribution, Spleen",[3]; [4],0.40 % ID/g
same,"In vivo distribution, Stomach",[3]; [4],1.04 % ID/g
same,"In vivo distribution, Tail",[3]; [4],1.18 % ID/g
same,"In vivo distribution, Tumor",[3]; [4],0.45 % ID/g
same,Tumor/blood,[3]; [4],0.61
same,Tumor/kidney,[3]; [4],0.08
same,Tumor/liver,[3]; [4],0.23
same,Tumor/muscle,[3]; [4],2.16
same,"In vivo distribution, Blood",[3]; 4 h,0.17 % ID/g
same,"In vivo distribution, Bone",[3]; 4 h,1.04 % ID/g
same,"In vivo distribution, Heart",[3]; 4 h,0.25 % ID/g
same,"In vivo distribution, Intestine",[3]; 4 h,1.48 % ID/g
same,"In vivo distribution, Kidney",[3]; 4 h,39.65 % ID/g
same,"In vivo distribution, Liver",[3]; 4 h,0.69 % ID/g
same,"In vivo distribution, Lung",[3]; 4 h,0.36 % ID/g
same,"In vivo distribution, Muscle",[3]; 4 h,0.07 % ID/g
same,"In vivo distribution, Spleen",[3]; 4 h,3.44 % ID/g
same,"In vivo distribution, Stomach",[3]; 4 h,0.42 % ID/g
same,"In vivo distribution, Tail",[3]; 4 h,0.48 % ID/g
same,"In vivo distribution, Tumor",[3]; 4 h,2.83 % ID/g
same,Tumor/blood,[3]; 4 h,16.70
same,Tumor/kidney,[3]; 4 h,0.07
same,Tumor/liver,[3]; 4 h,4.17
same,Tumor/muscle,[3]; 4 h,40.43
same,"In vivo distribution, Blood",[3]; [5],0.15 % ID/g
same,"In vivo distribution, Bone",[3]; [5],0.47 % ID/g
same,"In vivo distribution, Heart",[3]; [5],0.11 % ID/g
same,"In vivo distribution, Intestine",[3]; [5],1.26 % ID/g
same,"In vivo distribution, Kidney",[3]; [5],3.59 % ID/g
same,"In vivo distribution, Liver",[3]; [5],1.33 % ID/g
same,"In vivo distribution, Lung",[3]; [5],0.45 % ID/g
same,"In vivo distribution, Muscle",[3]; [5],0.05 % ID/g
same,"In vivo distribution, Spleen",[3]; [5],0.20 % ID/g
same,"In vivo distribution, Stomach",[3]; [5],0.23 % ID/g
same,"In vivo distribution, Tail",[3]; [5],0.53 % ID/g
same,"In vivo distribution, Tumor",[3]; [5],0.39 % ID/g
same,Tumor/blood,[3]; [5],2.67
same,Tumor/kidney,[3]; [5],0.11
same,Tumor/liver,[3]; [5],0.30
same,Tumor/muscle,[3]; [5],8.44
same,intake when PSMA was blocked with PMPA,[3]; summary of Tables 2 and 3,the intake was decreased
same,tissue with highest intake,[3]; summary of Tables 2 and 3,the highest intake in the kidney
